# Like-named read-outs stand apart in the source and are kept apart here.
# How the values were obtained:
# [1] = Pharmacokinetic profile of Bravecto spot-on after single topical administration on dogs; details: dog, in vivo, topical or ocular, 6250 ug/kg, Bravecto spot-on single topical 6250 μg/kg
# Method: The objective of the study is to determine the pharmacokinetic profile of the Bravecto spot-on containing fluralaner after a single topical administration on dogs at a dose rate of 6250 μg/kg after feeding. • IVP: Investigational Veterinary Product, is Bravecto spot-on containing fluralaner at a dose rate of 6250 μg/kg (22.3112 μL/kg) on Day 0
# Ten dogs were enrolled in the study of which six were included meeting the inclusion criteria. In addition, veterinary examinations (Day −14 and Day −2±one day), general health observations (all days) and weighing of all dogs (Day −2±one day) were performed.
# On Day 0, all dogs will receive the IVP at a dose rate of 6250 μg/kg. The quantity of IVP to be administered will be calculated according to the dog's individual body weight. Dogs will be observed hourly (±15 minutes) for four hours after administration on Day 0.
# Blood specimens will be collected from all dogs on Days −14 and −7 for clinical chemistry and hematology for inclusion and for pharmacokinetic analysis prior to IVP treatment on Day 0 and on Days 1 (+24 hours), 3 (+72 hours), 5 (+120 hours), 7 (+168 hours), 10 (+240 hours), 14 (+336 hours), 21 (+504 hours), 28 (+672 hours), 35 (+840 hours), 42 (+1008 hours), 49 (+1176 hours), 56 (+1344 hours) and 60 (+1440 hours).
# The PK parameters of fluralaner were calculated using a non-compartmental approach.
# The following rules were applied for the calculation of the PK parameters: • All the plasma concentrations, validated by the bioanalytical laboratory, were used for the PK analysis. • The actual blood sampling times were used throughout. • Concentrations below the Limit of Quantification (LOQ) value were considered as zero from time zero (pre-dose) up to the time at which the first quantifiable concentration above the LOQ value was observed. Concentrations below the LOQ value between two quantifiable concentrations were considered as missing. Trailing concentrations below the LOQ value were not used in calculations.
# Cmax the observed maximum concentration in plasma measured after dosing.
# tmax the time at which Cmax was apparent.
# λz the terminal rate constant (λz) was estimated by log-linear regression analysis on data points visually assessed, to be on the terminal log-linear phase. For the slope of the terminal elimination phase to be accepted as reliable, the following criteria were used: • the terminal data points were apparently randomly distributed about a single straight line (on visual inspection), • a minimum of three data points, including the last measured data point and excluding Cmax, were available for the regression.
# t1/2 the terminal plasma half-life (t1/2) was calculated according to the following equation: […]
# AUC0-t the area under the concentration-time curve from time zero (pre-dose) to the time of last quantifiable concentration (t) was calculated using a linear trapezoidal method.
# [AUC0-∞=AUC0-t+(Ct/λz)], where Ct was the observed concentration of drug for the last sample on the PK profile in which the drug was detected, and λz was as defined above.
# The extrapolated area under the curve, expressed as a percentage of the total area, AUCinf, was also calculated as: Area Extra (%)=(AUC0-∞−AUC0-t)/AUC0-∞*100%.
# Rhipicephalus sanguineus = test: Efficacy against ticks on dogs, oral 250/35/600 μg/kg study; format: in vivo
compound,measurement,setting,value
"Cc1cc(C2=NOC(c3cc(Cl)cc(Cl)c3)(C(F)(F)F)C2)ccc1C(=O)NCC(=O)NCC(F)(F)F (stereo not shown) [fluralaner, Fluralaner]",AUC(0-t),"[1]; dogs without 86D 6FA, n=5, read-out: fluralaner AUC0-t, Mean",181 µg·h/mL
same,Cmax,"[1]; dogs without 86D 6FA, n=5, read-out: fluralaner Cmax, Mean",238 ng/mL
same,half-life,"[1]; dogs without 86D 6FA, n=5, read-out: fluralaner t½ (terminal half-life), Mean (converted)",16.2 days
same,Cmax,"[1]; dogs, read-out: maximum concentration (Cmax), range",161 to 353 ng/mL
same,half-life,"[1]; dogs, read-out: terminal half-life, range",14.2 to 20.4 days
same,"live ticks, geometric mean, Group 2","Rhipicephalus sanguineus; Day 23, oral 250/35/600 μg/kg regimen",16.2
same,"live ticks, geometric mean, Group 2","Rhipicephalus sanguineus; Day 31, oral 250/35/600 μg/kg regimen",13.3

# Source: US12714696B2, “Low dose fluralaner compositions for protection against parasitic invertebrate pest” (VIRBAC, priority 2019, dated 2026)
